# According to patent publication US20230321086A1, “METHODS AND MATERIALS FOR INHIBITING NICOTINAMIDE PHOSPHORIBOSYLTRANSFERASE ACTIVITY” (Universiy of Pittsburgh - Of the Commonwealth System of …, priority 2020, published 2023):
# Tested on: A431 cells
# Test: Assay for total NADH and NAD+ measurements in cells
# Format: cell-based
# Set-up: C: change in NAD levels in response to test compound, shown as % of NAD activity in the absence of test compound: concentration or dose not given beside the values
# Details: percent of NAD level of untreated control cells (100 = no change)
# Method: 2,000 cells/well and, at the same time, test compounds dissolved in media at the desired concentration were added to each well. The treated cells were incubated overnight in C02 incubator. The cells were washed 6 times with PBS with 1 mM CaCl2) and 1 mM MgCl2. In the last wash, 10 μL of PBS with 1 mM CaCl2) and 1 mM MgCl2 per well were left in each well. Immediately thereafter, 10 μL 0.4% dodecyltrimethylammonium bromide (DTAB) in phosphate buffer pH 8.0 as added, and the plates were shaked at 1000 rpm for 5 minutes. 60 μL reaction mix was added, and fluorescence at Ex/Em 530/585 was immediately monitored. A linear increase should be achieved with 8 cycles every 92 seconds, 10 number of flashes/well/cycle. The reaction mix was prepared per the following table, respecting the amount and order in which each component was added:
# All assays were performed in A431 cells. Referring to the tables below, activity: “+” ≥25 μM, “++” ≥1 μM and <25 μM, and “+++”<1 μM.
# In each table header, A: NAMPT enzyme inhibitory activity, IC50 (μM); B: Cellular NAD inhibitory activity, IC50 (μM); and C: change in NAD levels in response to test compound, shown as % of NAD activity in the absence of test compound. […] A percentage of 100 percent would indicate no increase or decrease in NAD levels as compared to that measured for untreated control cells, while a percentage of 50 percent would indicate a decrease in NAD levels of 50 percent as compared to that measured for untreated control cells.
row,Structure (SMILES),"C: change in NAD levels in response to test compound, shown as % of NAD activity in the absence of test compound"
1,Cn1cnnc1-c1ccc2nc(-c3ccc(F)cc3)c(-c3ccc(F)cc3)nc2c1 [BC19101],53%
2,CN1CCN(C(=O)c2ccc3nc(C(F)(F)F)c(-c4ccc(F)cc4)nc3c2)CC1 [BC19103],92%
3,Cn1nnnc1-c1ccc2nc(C(F)(F)F)c(-c3ccc(F)cc3)nc2c1 [BC19112],86%
4,C#CCNC(=O)c1ccc2nc(-c3cccs3)c(-c3ccc(F)cc3)nc2c1 [BC19120],84%
5,Cn1nnnc1-c1ccc2nc(-c3ccc(F)cc3)c(-c3ccc(F)cc3)nc2c1 [BC19139],29%
6,Cc1cnc(-c2ccc3nc(-c4ccc(F)cc4)c(-c4ccc(F)cc4)nc3c2)o1 [BC19140],90%
7,Cc1nnc(-c2ccc3nc(-c4ccc(F)cc4)c(-c4ccc(F)cc4)nc3c2)o1 [BC19141],62%
8,CN1CCN(C(=O)c2ccc3nc(C(F)(F)F)c(-c4cccc(F)c4)nc3c2)CC1 [BC19142],94%
9,Fc1ccc(-c2nc3ccc(-c4nnc[nH]4)cc3nc2-c2ccc(F)cc2)cc1 [BC19143],80%
10,Cn1cc(-c2ccc3nc(-c4ccc(F)cc4)c(-c4ccc(F)cc4)nc3c2)nn1 [BC19148],80%
11,Fc1ccc(-c2nc3ccc(-c4c[nH]nn4)cc3nc2-c2ccc(F)cc2)cc1 [BC19150],89%
12,Cn1nnnc1-c1ccc2nc(-c3ccc(F)cc3)c(C(F)(F)F)nc2c1 [BC19152],93%
13,C#CCNC(=O)c1ccc2nc(-c3ccc(F)cc3)c(-c3ccc(F)cc3)nc2c1 [BC19154],73%
14,Fc1ccc(-c2nc3ccc(-c4nnc[nH]4)cc3nc2C(F)(F)F)cc1 [BC19159],92%
15,CN1CCN(C(=O)c2ccc3nc(-c4ccc(F)cc4)c(-c4cccs4)nc3c2)CC1 [BC19185],94%
16,N#Cc1ccc2nc(-c3ccc(F)cc3)c(-c3ccc(F)cc3)nc2c1 [BC19192],76%
17,N=C(NO)c1ccc2nc(-c3ccc(F)cc3)c(-c3ccc(F)cc3)nc2c1 [BC19194],45%
18,CC(C)OC(=O)Nc1ccc2nc(-c3ccc(F)cc3)c(-c3ccc(F)cc3)nc2c1 [BC19195],90%
19,O=C(NCCN1CCOCC1)c1ccc2nc(-c3ccc(F)cc3)c(-c3ccc(F)cc3)nc2c1 [BC19237],24%
20,Fc1ccc(-c2nc3ccc(-c4nnnn4CCN4CCOCC4)cc3nc2-c2ccc(F)cc2)cc1 [BC19238],68%
21,O=C(Nc1ccc2nc(-c3ccc(F)cc3)c(-c3ccc(F)cc3)nc2c1)OCC(F)(F)F [BC19239],66%
22,Fc1ccc(-c2nc3ccc(-c4cn(CCN5CCOCC5)nn4)cc3nc2-c2ccc(F)cc2)cc1 [BC19240],27%
23,Cc1nc(C)c(-c2ccc3nc(-c4ccc(F)cc4)c(-c4ccc(F)cc4)nc3c2)s1 [BC19241],79%
24,Fc1ccc(-c2nc3ccc(-c4cccnc4)cc3nc2-c2ccc(F)cc2)cc1 [BC19242],72%
25,CS(=O)(=O)c1cncc(-c2ccc3nc(-c4ccc(F)cc4)c(-c4ccc(F)cc4)nc3c2)c1 [BC19243],64%
26,CN1CCOc2cc(-c3ccc4nc(-c5ccc(F)cc5)c(-c5ccc(F)cc5)nc4c3)ccc21 [BC19244],86%
27,Fc1ccc(-c2nc3ccc(-c4ccncc4)cc3nc2-c2ccc(F)cc2)cc1 [BC19245],67%

row,Structure (SMILES),"C: change in NAD levels in response to test compound, shown as % of NAD activity in the absence of test compound"
1,CCc1nnc(-c2ccc3nc(-c4ccc(F)cc4)c(-c4ccc(F)cc4)nc3c2)o1 [BC19246],58%
2,CCCc1nnc(-c2ccc3nc(-c4ccc(F)cc4)c(-c4ccc(F)cc4)nc3c2)[nH]1 [BC19247],94%
3,Fc1ccc(-c2nc3ccc(-c4nnco4)cc3nc2-c2ccc(F)cc2)cc1 [BC19250],13%
4,O=C(Nc1ccc2nc(-c3ccc(F)cc3)c(-c3ccc(F)cc3)nc2c1)C1CCNCC1 [BC19251],0%
5,Cc1nnc(-c2ccc3nc(-c4ccc(F)cc4)c(-c4ccc(F)cc4)nc3c2)n1C [BC19301],57%
6,Cn1cc(-c2ccc3nc(-c4ccc(F)cc4)c(-c4ccc(F)cc4)nc3c2)cn1 [BC19302],58%
7,Cc1ccncc1-c1ccc2nc(-c3ccc(F)cc3)c(-c3ccc(F)cc3)nc2c1 [BC19304],69%
8,Cn1ncc2c(-c3ccc4nc(-c5ccc(F)cc5)c(-c5ccc(F)cc5)nc4c3)cccc21 [BC19305],93%
9,Fc1ccc(-c2nc3ccc(-c4nncn4CCN4CCOCC4)cc3nc2-c2ccc(F)cc2)cc1 [BC19306],76%
10,Cc1ccc(S(=O)(=O)c2nc3cc(C(=O)N4CCN(C)CC4)ccc3nc2-c2ccc(F)cc2)cc1F [BC19307],31%
11,Cc1ccc(S(=O)(=O)c2nc3cc(C(=O)N4CCN(C)CC4)ccc3nc2-c2ccc(F)cc2)cc1 [BC19308],48%
12,CN1CCC(C(=O)Nc2ccc3nc(-c4ccc(F)cc4)c(-c4ccc(F)cc4)nc3c2)CC1 [BC19309],18%
13,CC(=O)N1CCC(C(=O)Nc2ccc3nc(-c4ccc(F)cc4)c(-c4ccc(F)cc4)nc3c2)CC1 [BC19310],52%
14,CNC(=O)N1CCC(C(=O)Nc2ccc3nc(-c4ccc(F)cc4)c(-c4ccc(F)cc4)nc3c2)CC1 [BC19311],63%
15,CS(=O)(=O)N1CCC(C(=O)Nc2ccc3nc(-c4ccc(F)cc4)c(-c4ccc(F)cc4)nc3c2)CC1 [BC19312],54%
16,C=CC(=O)Nc1ccc2nc(-c3ccc(F)cc3)c(-c3ccc(F)cc3)nc2c1 [BC19313],91%
17,CC#CC(=O)Nc1ccc2nc(-c3ccc(F)cc3)c(-c3ccc(F)cc3)nc2c1 [BC19314],33%
18,C[C@H](Cl)C(=O)Nc1ccc2nc(-c3ccc(F)cc3)c(-c3ccc(F)cc3)nc2c1 [BC19315],89%
19,CN1CCN(C(=O)c2ccc3nc(-c4ccc(F)cc4)c(-c4ccc(Cl)cc4)nc3c2)CC1 [BC19317],42%
20,CN1CCN(C(=O)c2ccc3nc(-c4ccc(F)cc4)c(-c4ccc(F)cc4F)nc3c2)CC1 [BC19318],67%
21,CCc1ccc(-c2nc3cc(C(=O)N4CCN(C)CC4)ccc3nc2-c2ccc(F)cc2)cc1 [BC19319],95%
22,C#CCNC(=O)c1cccc2nc(-c3ccc(F)cc3)c(-c3ccc(F)cc3)nc12 [BC19321],72%
23,CN1CCN(C(=O)c2ccc3nc(-c4ccc(F)cc4)c(S(=O)(=O)c4cccc(F)c4)nc3c2)CC1 [BC19395],71%
24,OCCn1cc(-c2ccc3nc(-c4ccc(F)cc4)c(-c4ccc(F)cc4)nc3c2)nn1 [BC19396],60%
25,C#CC(=O)Nc1ccc2nc(-c3ccc(F)cc3)c(-c3ccc(F)cc3)nc2c1 [BC19397],65%
26,CN1CCN(C(=O)c2ccc3nc(-c4ccc(F)cc4)c(-c4ccc(Cl)cc4Cl)nc3c2)CC1 [BC19398],94%
